Values after ≈ are worked out from the molar mass of the structure shown. Counter-ions that a name gives are not always drawn.
Columns and labels:
[1] = Antitumor activity for L1210 (life prolonging effect, mouse leukemia transplanted intraperitoneally); assay type: in vivo; conditions: mouse, in vivo, ip; numerator of therapeutic index; i.p. total dose; read-out: Maximum tolerable dose
Description: (§1) 5×10^5 cells of mouse leukemia L1210 were transplanted intraperitoneally to a group of six female CDF1 mice (7 weeks old, body weight 17-19 g). The test compound was administered intraperitoneally on day 1, 5 and 9 and its life prolonging effect was observed.
(§2) In a case of the administration of a test compound as an acid addition salt the test compound was dissolved in water. The total administration amount was 1.56 mg/kg-400 mg/kg. The antitumor activity was expressed by the value (T/C%) wherein T denotes the mean survival days in the drug administered group and C denotes those in the non administered group. In case of equal to or more than 125% the drug is considered to be effective.

mouse leukemia L1210 = test: as above; assay type: in vivo; conditions: for 40-day survivors: group of six female CDF1 mice; for Therapeutic Index (Maximum tolerable dose/Minimum effective dose): i.p., L1210, CDF1 mice; for minimal effective dose: Mus musculus, L1210, ip, read-out: Minimum effective dose
Description: as §1, §2

[2] = Acute toxicity test by intraperitoneal administration; conditions: mouse, in vivo, ip, ICR male mice, 1 week observation
Description: Acute toxicity test was conducted by intraperitoneal administration using a group of twenty ICR male mice (4 weeks old, body weight around 20 g).
LD50 value was calculated by the Richfield-Willcokson method from a lethal ratio observing the fate of mice during 1 week after administration of a test compound.

Water solubility = assay type: physicochemical
[3] = denominator of therapeutic index, i.p. total dose

| Compound | MTD [1] | Optimum dose: Total dose (mouse leukemia L1210; CDF1 mice, i.p. on day 1, 5 and 9, total dose) | 40-day survivors (mouse leukemia L1210; at optimum dose) | T/C % (mouse leukemia L1210; at optimum dose, i.p. on day 1, 5 and 9, mean survival days treated/non administered, >=125% effective) | Minimum effective dose (mouse leukemia L1210; [3]) | Therapeutic Index (Maximum tolerable dose/Minimum effective dose) (mouse leukemia L1210) | LD50 at 168 h [2] | minimal effective dose (mouse leukemia L1210; [3]) | solubility (Water solubility) |
| --- | --- | --- | --- | --- | --- | --- | --- | --- | --- |
| CC[C@@](O)(C(=O)O)c1cc2n(c(=O)c1CO)Cc1cc3ccccc3nc1-2 [CPT-Na salt, reference compound] | 60 mg/kg | 60 mg/kg | 0/6 | 203% | 10 mg/kg | 6 | 227 mg/kg |  |  |
| CCOc1ccc2nc3c(c(C)c2c1)Cn1c-3cc([C@@](O)(CC)C(=O)NCCN(C)C)c(COC(=O)CCSC)c1=O [Compound C1] | 6.25 mg/kg |  | 0/6 |  |  | 4 | 164 mg/kg | 1.56 mg/kg | > 64 mg/mL |
| CC[C@@](O)(C(=O)NCCN(C)C)c1cc2n(c(=O)c1COC(=O)CCSC)Cc1c-2nc2cc(Br)ccc2c1C [Compound C2] | 25 mg/kg |  | 0/6 |  |  | 8 | 241 mg/kg | 3.13 mg/kg | > 67 mg/mL |
| CCC(=O)OCc1c([C@@](O)(CC)C(=O)NCCN(C)C)cc2n(c1=O)Cc1c-2nc2ccc(Cl)cc2c1CC [Compound C3] | 6.25 mg/kg |  | 1/6 |  |  | > 4 | 186 mg/kg | < 1.56 mg/kg | 29 mg/mL (≈ 52.2 mM) |
| CCCC(=O)OCc1c([C@@](O)(CC)C(=O)NCCN(C)C)cc2n(c1=O)Cc1c-2nc2ccc(Cl)cc2c1CC [Compound C4] | 6.25 mg/kg |  | 1/6 |  |  | > 4 | 142 mg/kg | < 1.56 mg/kg | 41 mg/mL (≈ 72 mM) |
| CCc1c2c(nc3ccc(Cl)cc13)-c1cc([C@@](O)(CC)C(=O)NCCN(C)C)c(COC(=O)CCSC)c(=O)n1C2 [Compound C5] | 6.25 mg/kg |  | 3/6 |  |  | > 4 | 168 mg/kg | < 1.56 mg/kg | 21 mg/mL (≈ 34.9 mM) |
| CCc1c2c(nc3ccc(Br)cc13)-c1cc([C@@](O)(CC)C(=O)NCCN(C)C)c(COC(=O)CCSC)c(=O)n1C2 [Compound C6] | 6.25 mg/kg |  | 1/6 |  |  | > 4 | 116 mg/kg | < 1.56 mg/kg | 25 mg/mL (≈ 38.7 mM) |
| CCc1c2c(nc3ccc(C)cc13)-c1cc([C@@](O)(CC)C(=O)NCCN(C)C)c(COC(=O)CCSC)c(=O)n1C2 [Compound C7] | 100 mg/kg |  | 5/6 |  |  | 32 | 234 mg/kg | 3.13 mg/kg | 21 mg/mL (≈ 36.2 mM) |
| CCC(=O)OCc1c([C@@](O)(CC)C(=O)NCCN(C)C)cc2n(c1=O)Cc1c-2nc2cc(F)ccc2c1CC [Compound C8] | 12.5 mg/kg |  | 4/6 |  |  | 8 | 124 mg/kg | 1.56 mg/kg | 20 mg/mL (≈ 37.1 mM) |
| CCCC(=O)OCc1c([C@@](O)(CC)C(=O)NCCN(C)C)cc2n(c1=O)Cc1c-2nc2cc(F)ccc2c1CC [Compound C9] | 12.5 mg/kg |  | 2/6 |  |  | 8 | 152 mg/kg | 1.56 mg/kg | > 59 mg/mL |
| CCC(=O)OCc1c([C@@](O)(CC)C(=O)NCCN(C)C)cc2n(c1=O)Cc1c-2nc2cc(F)c(F)cc2c1CC [Compound C13] |  |  | 0/6 |  |  |  | 67.6 mg/kg |  | > 59 mg/mL |
| CCCC(=O)OCc1c([C@@](O)(CC)C(=O)NCCN(C)C)cc2n(c1=O)Cc1c-2nc2cc(F)c(F)cc2c1CC [Compound C14] |  |  | 1/6 |  |  |  | 98.3 mg/kg |  | > 60 mg/mL |
| CCc1c2c(nc3cc(F)c(F)cc13)-c1cc([C@@](O)(CC)C(=O)NCCN(C)C)c(COC(=O)CCSC)c(=O)n1C2 [Compound C15] |  |  | 0/6 |  |  |  | 85.2 mg/kg |  | > 64 mg/mL |
| CCc1c2c(nc3cc(F)c(OC)cc13)-c1cc([C@@](O)(CC)C(=O)NCCN(C)C)c(COC(=O)CCSC)c(=O)n1C2 [Compound C22] |  |  | 0/6 |  |  |  | 68.6 mg/kg |  | > 65 mg/mL |
| CC=CC(=O)OCc1c([C@@](O)(CC)C(=O)NCCN(C)C)cc2n(c1=O)Cc1c-2nc2ccc(O)cc2c1CC [Compound C34] |  |  |  |  |  |  |  |  | > 59 mg/mL |
| CCc1c2c(nc3ccc(C)cc13)-c1cc([C@@](O)(CC)C(=O)NCCN(C)C)c(COC(=O)c3ccncc3)c(=O)n1C2 [Compound C39] | 50 mg/kg |  | 3/6 |  |  | 16 | 320 mg/kg | 3.13 mg/kg |  |
| CCc1c2c(nc3ccc(Cl)cc13)-c1cc([C@@](O)(CC)C(=O)NCCN(C)C)c(COC(=O)c3ccncc3)c(=O)n1C2 [Compound C40] | 6.25 mg/kg |  | 1/6 |  |  | 4 | 213 mg/kg | 1.56 mg/kg |  |
| CCc1c2c(nc3cc(F)ccc13)-c1cc([C@@](O)(CC)C(=O)NCCN(C)C)c(COC(=O)c3ccncc3)c(=O)n1C2 [Compound C41] | 25 mg/kg |  | 2/6 |  |  | > 16 | 220 mg/kg | < 1.56 mg/kg |  |
| CCc1c2c(nc3cc(F)c(C)cc13)-c1cc([C@@](O)(CC)C(=O)NCCN(C)C)c(COC(=O)c3ccncc3)c(=O)n1C2 [Compound C42] | 12.5 mg/kg |  | 2/6 |  |  | > 8 | 310 mg/kg | 1.56 mg/kg |  |
| CCc1c2c(nc3cc(F)c(OC)cc13)-c1cc([C@@](O)(CC)C(=O)NCCN(C)C)c(COC(=O)c3ccncc3)c(=O)n1C2 [Compound C43] | 6.25 mg/kg |  | 2/6 |  |  | > 4 | 165 mg/kg | 1.56 mg/kg |  |
| CCc1c2c(nc3ccc(O)cc13)-c1cc([C@@](O)(CC)C(=O)NCCN(C)C)c(COC(C)=O)c(=O)n1C2 [Compound C45] | 400 mg/kg |  | 0/6 |  |  | 4 | 376 mg/kg | 100 mg/kg |  |
| CCc1c2c(nc3ccc(O)cc13)-c1cc([C@@](O)(CC)C(=O)NCCN(C)C)c(COC(=O)C(C)C)c(=O)n1C2 [Compound C46] | 400 mg/kg |  | 0/6 |  |  | 16 | 478 mg/kg | 25 mg/kg |  |
| CCOCCC(=O)OCc1c([C@@](O)(CC)C(=O)NCCN(C)C)cc2n(c1=O)Cc1c-2nc2ccc(O)cc2c1CC [Compound C47] | 200 mg/kg |  | 0/6 |  |  | 4 | 471 mg/kg | 50 mg/kg |  |
| CCc1c2c(nc3ccc(OC(C)=O)cc13)-c1cc([C@@](O)(CC)C(=O)NCCN(C)C)c(COC(=O)c3ccc(F)cc3)c(=O)n1C2 [Compound C48] | 200 mg/kg |  | 0/6 |  |  | 8 | 418 mg/kg | 25 mg/kg |  |
